Source: article PMC7198601, “Side chain effect in the modulation of αvβ3/α5β1 integrin activity via clickable isoxazoline-RGD-mimetics: development of molecular delivery systems” (Scientific Reports, 2020)
Where two headings read alike, the source gives them in different places.

Assays:
αvβ3 integrin [1] = target: T1, αvβ3 integrin (Homo sapiens, UniProt P05106+P06756); test: Cell adhesion assay: SK-MEL-24 cells to immobilized fibronectin (αvβ3 integrin-mediated); settings: for αvβ3 behaviour (agonist/antagonist): SK-MEL-24 cell adhesion to fibronectin
T1 sequence (P06756 31-889 limits assumed): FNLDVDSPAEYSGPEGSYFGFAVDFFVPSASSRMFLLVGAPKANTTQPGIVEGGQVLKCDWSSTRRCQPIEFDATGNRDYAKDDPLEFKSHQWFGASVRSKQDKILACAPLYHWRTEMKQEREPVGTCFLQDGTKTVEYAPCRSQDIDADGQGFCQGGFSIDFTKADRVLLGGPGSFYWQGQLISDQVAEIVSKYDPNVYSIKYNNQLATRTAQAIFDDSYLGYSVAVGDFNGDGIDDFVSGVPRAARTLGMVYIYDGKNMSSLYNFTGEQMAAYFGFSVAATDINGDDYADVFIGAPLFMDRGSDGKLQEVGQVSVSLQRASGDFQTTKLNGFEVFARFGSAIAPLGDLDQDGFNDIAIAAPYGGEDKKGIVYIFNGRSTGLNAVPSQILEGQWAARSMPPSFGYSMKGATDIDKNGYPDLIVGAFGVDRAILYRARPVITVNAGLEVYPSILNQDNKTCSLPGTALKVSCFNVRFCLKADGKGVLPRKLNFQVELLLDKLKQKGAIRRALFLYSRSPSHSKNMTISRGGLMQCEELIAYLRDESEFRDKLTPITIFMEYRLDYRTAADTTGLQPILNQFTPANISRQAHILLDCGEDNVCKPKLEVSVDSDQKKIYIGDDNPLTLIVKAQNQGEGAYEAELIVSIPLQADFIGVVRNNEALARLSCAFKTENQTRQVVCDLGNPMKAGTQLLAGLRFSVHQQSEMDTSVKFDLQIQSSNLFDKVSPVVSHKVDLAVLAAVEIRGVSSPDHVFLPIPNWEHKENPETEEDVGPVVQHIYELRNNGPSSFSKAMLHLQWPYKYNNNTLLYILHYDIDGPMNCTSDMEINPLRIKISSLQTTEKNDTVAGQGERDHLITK
T1 sequence (P06756 891-1048 partner limits assumed): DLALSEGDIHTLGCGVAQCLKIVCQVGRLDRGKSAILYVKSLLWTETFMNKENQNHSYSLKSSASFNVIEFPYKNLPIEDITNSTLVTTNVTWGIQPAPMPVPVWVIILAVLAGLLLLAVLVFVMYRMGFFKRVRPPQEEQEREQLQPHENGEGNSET
T1 sequence (P05106 27-788): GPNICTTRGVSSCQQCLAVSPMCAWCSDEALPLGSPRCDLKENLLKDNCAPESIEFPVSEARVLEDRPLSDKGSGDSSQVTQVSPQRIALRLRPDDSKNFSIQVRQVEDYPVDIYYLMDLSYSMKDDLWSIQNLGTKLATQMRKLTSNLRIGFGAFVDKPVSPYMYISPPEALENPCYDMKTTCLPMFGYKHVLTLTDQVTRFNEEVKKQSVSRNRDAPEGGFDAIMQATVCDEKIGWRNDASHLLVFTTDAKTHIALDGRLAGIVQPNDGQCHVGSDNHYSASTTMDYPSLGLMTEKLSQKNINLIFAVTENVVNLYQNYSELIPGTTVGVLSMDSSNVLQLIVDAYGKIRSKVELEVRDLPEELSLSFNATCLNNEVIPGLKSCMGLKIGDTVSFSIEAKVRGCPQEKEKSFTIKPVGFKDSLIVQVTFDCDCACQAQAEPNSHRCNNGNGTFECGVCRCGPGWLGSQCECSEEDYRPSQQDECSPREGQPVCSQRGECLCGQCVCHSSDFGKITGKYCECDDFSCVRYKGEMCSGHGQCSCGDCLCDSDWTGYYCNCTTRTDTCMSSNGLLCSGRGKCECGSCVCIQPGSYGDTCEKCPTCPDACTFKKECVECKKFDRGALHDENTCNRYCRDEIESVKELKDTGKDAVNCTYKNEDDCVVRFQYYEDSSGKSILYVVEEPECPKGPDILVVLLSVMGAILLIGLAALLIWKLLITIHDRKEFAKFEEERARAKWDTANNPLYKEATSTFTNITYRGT
Protocol: (§1) The ability of the synthesized racemic ligands to inhibit the adhesion of K562 cells (human erythroleukemic cells, expressing α5β1 integrin) or SK-MEL-24 cells (human malignant melanoma cells, expressing αvβ3 integrin) to immobilized fibronectin was evaluated[29]. […] In these experiments, the cells were seeded onto plates coated with fibronectin and allowed to adhere before quantitation of the number of adherent cells, in presence of increasing concentrations of the compounds.
(§2) SK-MEL-24 (American Tissue Culture Collection, ATCC, Rockville, MD) were routinely grown in minimum essential medium (MEM, Cambrex, Walkersville, MD) supplemented with 10% fetal bovine serum (FBS), nonessential amino acids, and sodium pyruvate. K-562 (ATCC, Rockville, MD) were maintained as a stationary suspension culture in RPMI-1640 and L-glutamine with 10% FBS (Invitrogen (Carlsbad, CA). Cells were kept at 37 °C in a 5% CO2 humidified atmosphere. Forty hours before experiments, K-562 were treated with 25 ng/mL PMA (Sigma-Aldrich SRL, Milan, Italy) to induce differentiation and to increase expression of cell surface antigens[50].
(§3) Plates (96 wells) (Corning Costar, Celbio, Milan,Italy) were coated by passive adsorption with fibronectin (10 µg/mL) or poly-L-lysine (0.002%) (Sigma-Aldrich SRL) overnight at 4 °C. Cells were counted with a haemocytometer and pre-incubated with different concentrations of each compound or with the vehicle (methanol) for 30 min at room temperature to reach a ligand-receptor equilibrium. Stock solutions (10^–2 M) of the assayed compounds were prepared in phosphate-buffered saline (PBS). […] This product is a chromogenic substrate for β-N-acetylglucosaminidase that is transformed in 4-nitrophenol whose absorbance can be measured at 405 nm. As previously described[51], there is a linear correlation between absorbance and enzymatic activity. Therefore, it is possible to identify the number of adherent cells among treated wells, interpolating the absorbance values of unknowns in a calibration curve. The reaction was blocked by addition of 100 µL of a stopping solution [50 µM glycine and 5 µM EDTA (pH 10.4)], and the plates were read in an EnSpire Multimode Plate Reader (PerkinElmer, Waltham, MA, USA). Experiments were carried out in quadruplicate and repeated at least three times. Data analysis and IC50/EC50 values were calculated using Graph-Pad Prism 5.0 (GraphPad Software, San Diego, CA).

α5β1 integrin [2] = target: T2, α5β1 integrin (Homo sapiens, UniProt P05556+P08648); test: Cell adhesion assay: K562 cells to immobilized fibronectin (α5β1 integrin-mediated); settings: for α5β1 behaviour (agonist/antagonist): K562 cell adhesion to fibronectin
T2 sequence (P08648 42-894 limits assumed): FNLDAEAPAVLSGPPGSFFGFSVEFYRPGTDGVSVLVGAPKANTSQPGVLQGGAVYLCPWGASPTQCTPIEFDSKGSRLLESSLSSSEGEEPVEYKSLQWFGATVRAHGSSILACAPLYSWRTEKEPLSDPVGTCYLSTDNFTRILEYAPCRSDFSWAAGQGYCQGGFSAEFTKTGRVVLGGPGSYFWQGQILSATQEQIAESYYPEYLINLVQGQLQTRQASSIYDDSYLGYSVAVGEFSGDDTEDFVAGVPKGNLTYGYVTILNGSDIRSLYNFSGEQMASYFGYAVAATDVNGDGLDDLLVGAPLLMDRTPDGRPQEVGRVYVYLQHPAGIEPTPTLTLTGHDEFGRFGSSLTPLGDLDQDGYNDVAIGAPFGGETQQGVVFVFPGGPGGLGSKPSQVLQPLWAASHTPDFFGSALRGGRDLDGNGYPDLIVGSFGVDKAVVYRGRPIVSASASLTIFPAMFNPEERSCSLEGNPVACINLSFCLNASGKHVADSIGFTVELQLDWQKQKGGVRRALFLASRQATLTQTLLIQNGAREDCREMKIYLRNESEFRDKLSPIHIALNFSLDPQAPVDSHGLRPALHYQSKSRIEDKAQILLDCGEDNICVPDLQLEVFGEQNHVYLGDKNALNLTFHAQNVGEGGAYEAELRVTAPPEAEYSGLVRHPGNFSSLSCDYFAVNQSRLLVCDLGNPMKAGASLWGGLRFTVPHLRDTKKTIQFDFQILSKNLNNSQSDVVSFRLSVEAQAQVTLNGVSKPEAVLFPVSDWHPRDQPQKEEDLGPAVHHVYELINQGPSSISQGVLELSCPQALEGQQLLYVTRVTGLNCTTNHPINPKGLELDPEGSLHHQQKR
T2 sequence (P08648 895-1049 partner limits assumed): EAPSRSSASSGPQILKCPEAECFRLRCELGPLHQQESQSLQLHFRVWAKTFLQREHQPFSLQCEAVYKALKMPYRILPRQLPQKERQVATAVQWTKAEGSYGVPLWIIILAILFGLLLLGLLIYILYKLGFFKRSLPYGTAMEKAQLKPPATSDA
T2 sequence (P05556 21-798): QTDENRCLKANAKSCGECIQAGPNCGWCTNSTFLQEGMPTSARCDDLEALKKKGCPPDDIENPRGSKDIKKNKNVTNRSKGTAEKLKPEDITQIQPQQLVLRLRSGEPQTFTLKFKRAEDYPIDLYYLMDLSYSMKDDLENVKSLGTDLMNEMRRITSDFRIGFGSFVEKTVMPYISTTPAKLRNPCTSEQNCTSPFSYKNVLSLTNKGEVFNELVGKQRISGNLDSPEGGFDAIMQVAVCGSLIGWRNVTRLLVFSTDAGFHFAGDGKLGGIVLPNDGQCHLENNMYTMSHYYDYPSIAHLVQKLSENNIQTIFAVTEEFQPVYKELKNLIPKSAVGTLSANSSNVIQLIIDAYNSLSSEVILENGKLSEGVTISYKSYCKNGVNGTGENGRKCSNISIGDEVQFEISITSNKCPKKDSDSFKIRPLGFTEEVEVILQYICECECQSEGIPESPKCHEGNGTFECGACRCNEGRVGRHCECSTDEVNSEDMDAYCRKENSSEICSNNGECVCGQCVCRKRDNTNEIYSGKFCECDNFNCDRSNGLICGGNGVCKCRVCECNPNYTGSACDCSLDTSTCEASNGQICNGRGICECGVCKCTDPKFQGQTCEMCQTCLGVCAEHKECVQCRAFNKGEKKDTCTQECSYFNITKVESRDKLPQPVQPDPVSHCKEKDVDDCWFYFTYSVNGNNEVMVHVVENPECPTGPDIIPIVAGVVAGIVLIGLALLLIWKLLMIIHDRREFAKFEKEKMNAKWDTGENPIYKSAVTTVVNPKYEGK
Protocol: as §1, §2, §3

α5β1 integrin [3] = target: T2, α5β1 integrin; set-up: K562 cells (human erythroleukemic cells, expressing α5β1 integrin); endogenous in cells; host or cells: K-562 (ATCC), treated with PMA 40 h before the experiments; settings: cited from earlier work; for α5β1 behaviour (agonist/antagonist): reference compounds, entries 11-17, 41 (table footnotes b-f); for IC50: cell adhesion assay, Figure 1, ref ChemMedChem 2011, 6, 2264–2272
αvβ3 integrin [4] = target: T1, αvβ3 integrin; set-up: SK-MEL-24 cells (human malignant melanoma cells, expressing αvβ3 integrin); endogenous in cells; host or cells: SK-MEL-24 (ATCC); settings: cited from earlier work; for αvβ3 behaviour (agonist/antagonist): reference compounds, entries 11-19, Dechantsreiter et al. (table footnotes b-h); for IC50: cell adhesion assay, Figure 1, ref ChemMedChem 2011, 6, 2264–2272
[5] = test system: α5β1 integrin-mediated phosphorylation of ERK1/2; test: α5β1 integrin-mediated ERK1/2 phosphorylation in K562 cells (Western blot); assay type: cell-based, human; settings: K562 cells not incubated with fibronectin, compound 10^−7–10^−9 M
Protocol: The mechanism by which components of extracellular matrix generate intracellular signalling through integrins requires indeed an increased phosphorylation of cytoplasmatic second messengers. Phosphorylation of ERK1/2 plays a central role in fibronectin-mediated survival signalling through integrins: in fact, cell adhesion activates ERK1/2 by binding of α5β1 integrins at the cell surface to extracellular matrix proteins such as fibronectin. The experiment was performed by serum-starving K562 cells in RPMI-1640 containing 1% FBS for 16 h; thereafter, they were preincubated with compound 17b, 24 (10^−7–10^−9 M) or the vehicle for 60 minutes and then plated for 60 minutes on fibronectin.
Figure 2 (a) Cropped blots related to the effect of compounds 17b and 24 on α5β1 integrin-mediated phosphorylation of ERK1/2 in K562 cells. Cells were serum-starved in RPMI-1640 containing 1% FBS for 16 h; then cells were preincubated with different concentrations of the antagonist 17b (10^−7–10^−9 M) or its vehicle for 1 h in suspension and then were allowed to adhere for 1 h on fibronectin (FN). […] Thereafter cells were lysed and lysates were analysed in Western blot using an antibody directed against phosphorylated ERK1/2 (pERK1/2) or total ERK1/2 (totERK1/2). […]
K562 cells were incubated in RPMI-1640 with 1% FBS for 16 h. […] Digital images were acquired and analyzed following previously reported methods.

α5β1 integrin [6] = target: T2, α5β1 integrin; test: α5β1 integrin internalization by confocal microscopy in HEK293 + α5-EGFP cells; assay type: cell-based; settings: compound 1 µM, no fibronectin
Source text: Integrin trafficking is an important mechanism employed by cells to regulate integrin–extracellular matrix interactions, and thus cellular signalling, during processes such as cell migration and invasion. α5β1 integrin is internalized, trafficked to recycling endosomes and then recycled to the plasma membrane[43],[44]. Membrane trafficking pathways influence α5β1’s ability to promote invasion and metastasis[45],[46]. […]
HEK293 cells (not expressing α5 but endogenously expressing β1 integrin[47],[48] were plated in 6 well plates and at 50–60% confluence were transiently transfected with α5-EGFP plasmid using Lipofectamine2000 transfection reagent (LifeTechnologies). After 48 h from transfection, HEK293 + α5-EGFP cells were assessed to verify integrins expression by flow cytometry (data not shown). α5-EGFP integrin plasmid was a kind gift from Michael Davidson (Addgene plasmid #56423). HEK293 + α5-EGFP cells were treated at 4 °C with fibronectin (10 µg/ml) or the agonist 24 (1 µM) in MEM for 1 hour. Cells exposed to the antagonist 17b (1 µM), before the addition of fibronectin, were pre-incubated with the compound for 20 minutes at 4 °C. […]
Specimens were embedded in Mowiol and analyzed using a Nikon C1s confocal laser-scanning microscope, equipped with a Nikon PlanApo 60×, 1.4-NA oil immersion lens. […]

Compound: CC1=C(C(=O)NCc2ccc(N)cc2)C(CCCc2cn(CC(=O)OC(C)(C)C)nn2)N(C(=O)CC(=O)O)O1 (centres unmarked) [Compound 20a]
- EC50 (αvβ3 integrin [1]): 0.23 ± 0.08 µM
- αvβ3 behaviour (agonist/antagonist) (αvβ3 integrin [1]): agonist
- IC50 (α5β1 integrin [2]): > 1000 µM

Compound: H-Gly-Arg-Gly-Asp-Thr-Pro-OH (H-GRGDTP-OH) [standard antagonist of cell adhesion mediated by α5β1 integrin]
- α5β1 IC50/EC50 (IC50 for antagonists) (α5β1 integrin [3]; reference compound): 0.00062 ± 0.00009 µM
- α5β1 behaviour (agonist/antagonist) (α5β1 integrin [3]): antagonist
- αvβ3 IC50/EC50 (IC50 for antagonists) (αvβ3 integrin [4]; reference compound): 0.926 ± 0.006 µM
- αvβ3 behaviour (agonist/antagonist) (αvβ3 integrin [4]): antagonist

Compound: CC1=C(C(=O)NCc2ccc(N)cc2)C(CCCc2cn(CCC(=O)OC(C)(C)C)nn2)N(C(=O)CC(=O)O)O1 (centres unmarked) [Compound 20b]
- EC50 (αvβ3 integrin [1]): 0.068 ± 0.011 µM
- αvβ3 behaviour (agonist/antagonist) (αvβ3 integrin [1]): agonist
- IC50 (α5β1 integrin [2]): > 1000 µM

Compound: CC1=C(C(=O)NCc2ccc(N)cc2)C(CCCc2cn(CCCNC(=O)CCC(=O)OC(C)(C)C)nn2)N(C(=O)CC(=O)O)O1 (centres unmarked) [Compound 24]
- ERK1/2-phosphorylation [5]: significant concentration dependent increase
- IC50 (αvβ3 integrin [1]): > 1000 µM
- α5β1 integrin internalization by compound alone (α5β1 integrin [6]): induced α5β1 internalization
- EC50 (α5β1 integrin [2]): 6.59 ± 0.16 µM
- α5β1 behaviour (agonist/antagonist) (α5β1 integrin [2]): agonist

Compound: CC1=C(C(=O)NCc2ccc(N)cc2)C(CCCc2cn(CCNC(=O)OC(C)(C)C)nn2)N(C(=O)CC(=O)O)O1 (centres unmarked) [Compound 17a]
- IC50 (αvβ3 integrin [1]): 0.88 ± 0.07 µM
- αvβ3 behaviour (agonist/antagonist) (αvβ3 integrin [1]): antagonist
- IC50 (α5β1 integrin [2]): 0.28 ± 0.03 µM
- α5β1 behaviour (agonist/antagonist) (α5β1 integrin [2]): antagonist

Compound: Cc1ccccc1NC(=O)N1C(=O)CC1CC(=O)NCC(=O)O (centres unmarked) [Ref E, 2-(2-(4-Oxo-(o-tolylcarbamoyl)azetidin-2-yl)acetamido)acetic acid]
- α5β1 IC50/EC50 (EC50 for agonists) (α5β1 integrin [3]; cell adhesion to fibronectin): 0.0129 ± 0.0006 µM
- α5β1 behaviour (agonist/antagonist) (α5β1 integrin [3]): agonist
- αvβ3 IC50/EC50 (αvβ3 integrin [4]; cell adhesion to fibronectin): >1000 µM

Compound: Ac-Asp-Arg-Leu-Asp-Ser-OH (Ac-DRLDS-OH) [standard antagonist of cell adhesion mediated by αvβ3 integrin]
- α5β1 IC50/EC50 (α5β1 integrin [3]; reference compound): >1000 µM
- αvβ3 IC50/EC50 (IC50 for antagonists) (αvβ3 integrin [4]; reference compound): 0.025 ± 0.003 µM
- αvβ3 behaviour (agonist/antagonist) (αvβ3 integrin [4]): antagonist

Compound: CCOC(=O)COCCOCCn1cc(CCCC2C(C(=O)NCc3ccc(N)cc3)=C(C)ON2C(=O)CC(=O)O)nn1 (centres unmarked) [Compound 30]
- IC50 (αvβ3 integrin [1]): > 1000 µM
- IC50 (α5β1 integrin [2]): > 1000 µM

Compound: C#CCCCC1C(C(=O)NCc2ccc(N)cc2)=C(C)ON1C(=O)CC(=O)O (centres unmarked) [Compound 8]
- EC50 (αvβ3 integrin [1]): 0.83 ± 0.05 µM
- αvβ3 behaviour (agonist/antagonist) (αvβ3 integrin [1]): agonist
- IC50 (α5β1 integrin [2]): > 1000 µM

Compound: CCC(C)C1C(C(=O)NCc2ccc(N)cc2)=C(C)ON1C(=O)CC(=O)O (centres unmarked) [Ref C]
- IC50 (α5β1 integrin [3]): 1.32 ± 0.08 µM
- α5β1 IC50/EC50 (IC50 for antagonists) (α5β1 integrin [3]; cell adhesion to fibronectin): 1.320 ± 0.080 µM
- α5β1 behaviour (agonist/antagonist) (α5β1 integrin [3]): antagonist
- IC50 (αvβ3 integrin [4]): 0.36 ± 0.07 µM
- αvβ3 IC50/EC50 (IC50 for antagonists) (αvβ3 integrin [4]; cell adhesion to fibronectin): 0.360 ± 0.070 µM
- αvβ3 behaviour (agonist/antagonist) (αvβ3 integrin [4]): antagonist

Compound: CC1=C(C(=O)NCc2ccc(N)cc2)C(C)N(C(=O)CC(=O)O)O1 (centres unmarked) [Ref A]
- IC50 (α5β1 integrin [3]): 0.012 ± 0.004 µM
- α5β1 IC50/EC50 (IC50 for antagonists) (α5β1 integrin [3]; cell adhesion to fibronectin): 0.012 ± 0.004 µM
- α5β1 behaviour (agonist/antagonist) (α5β1 integrin [3]): antagonist
- IC50 (αvβ3 integrin [4]): 0.032 ± 0.003 µM
- αvβ3 IC50/EC50 (IC50 for antagonists) (αvβ3 integrin [4]; cell adhesion to fibronectin): 0.032 ± 0.003 µM
- αvβ3 behaviour (agonist/antagonist) (αvβ3 integrin [4]): antagonist

Compound: CC1=C(C(=O)NCc2ccc(N)cc2)C(C(C)C)N(C(=O)CC(=O)O)O1 (centres unmarked) [Ref B]
- IC50 (α5β1 integrin [3]): 0.00105 ± 0.0003 µM
- α5β1 behaviour (agonist/antagonist) (α5β1 integrin [3]): antagonist
- IC50 (αvβ3 integrin [4]): 0.0088 ± 0.0006 µM
- αvβ3 IC50/EC50 (IC50 for antagonists) (αvβ3 integrin [4]; cell adhesion to fibronectin): 0.0088 ± 0.0006 µM
- αvβ3 behaviour (agonist/antagonist) (αvβ3 integrin [4]): antagonist

Compound: CC1=C(C(=O)NCc2ccc(N)cc2)C(C2CCCCC2)N(C(=O)CC(=O)O)O1 (centres unmarked) [Ref D]
- IC50 (α5β1 integrin [3]): 1.03 ± 0.05 µM
- α5β1 IC50/EC50 (IC50 for antagonists) (α5β1 integrin [3]; cell adhesion to fibronectin): 1.030 ± 0.050 µM
- α5β1 behaviour (agonist/antagonist) (α5β1 integrin [3]): antagonist
- IC50 (αvβ3 integrin [4]): 0.02 ± 0.006 µM
- αvβ3 IC50/EC50 (IC50 for antagonists) (αvβ3 integrin [4]; cell adhesion to fibronectin): 0.020 ± 0.006 µM
- αvβ3 behaviour (agonist/antagonist) (αvβ3 integrin [4]): antagonist

Compound: CC1=C(C(=O)NCc2ccc(N)cc2)C(CCCc2cn(CCOCCOCCNC(=O)OC(C)(C)C)nn2)N(C(=O)CC(=O)O)O1 (centres unmarked) [Compound 28]
- IC50 (αvβ3 integrin [1]): 8.84 ± 0.14 µM
- αvβ3 behaviour (agonist/antagonist) (αvβ3 integrin [1]): antagonist
- IC50 (α5β1 integrin [2]): > 1000 µM

Compound: CCOC(=O)CCCCn1cc(CCCC2C(C(=O)NCc3ccc(N)cc3)=C(C)ON2C(=O)CC(=O)O)nn1 (centres unmarked) [Compound 26]
- EC50 (αvβ3 integrin [1]): 0.61 ± 0.08 µM
- αvβ3 behaviour (agonist/antagonist) (αvβ3 integrin [1]): agonist
- IC50 (α5β1 integrin [2]): > 1000 µM
